# System: rumen liquor
# Test: In vitro test for methane production (modified Hohenheim Forage value Test, HFT)
# Type: cell-based
# Conditions: for Total methane change [% vs. control]: TMR feed, 8 hours at 39° C, average of four to eight experiments
# Procedure: In vitro test for methane production: A modified version of the “Hohenheim Forage value Test (HFT)” was used for testing the effect of specific compounds on the rumen functions mimicked by this in-vitro system.
# Principle: Feed is gadded into a syringe with a composition of rumen liquor and an appropriate mixture of buffers. The solution is incubated at 39° C. After 8 hours the quantity (and composition) of gas phase produced is measured and put into a formula for conversion.
# Sample weighing: The feed stuff (i.e. TMR (44% concentrate, 6% hay, 37% maize silage and 13% grass silage) is sieved to 1 mm and weighed exactly into 64 syringes. 4 of these syringes are the substrate controls, which display the gas production without the effect of the tested compounds. The remaining syringes contain the test substances, by groups of 4 syringes.
# The components are mixed in a Woulff bottle in following order: • 711 ml water • 0.18 ml trace element solution • 355.5 ml buffer solution • 355.5 ml mass element solution • The completed solution is warmed up to 39° C.followed by the addition of 1.83 ml sodium salt solution and the addition of reduction solution at 36° C. The rumen liquor is added, when the indicator turns colourless.
# Extraction of the rumen liquor: 750 ml of rumen liquor are added to approximately 1,400 ml of medium solution under continued agitation and CO2-gassing.
# Filling the syringes, incubation and determining gas volumes and VFA values: The diluted rumen fluid (24 ml) is added to the glass syringe. The syringes are then incubated for 8 hours at 39° C.under gentle agitation. After 8 hours, the volume of gas produced is measured, and the percentage of methane in the gas phase is determined by gas chromatography.
# The food fermented was artificial TMR (44% concentrate, 6% hay, 37% maize silage and 13% grass silage). Gossypol was obtained from Sigma-Aldrich (G8761), and used at a concentration as outlined in table 1. 3-Nitrooxy-propanol (3-NOP) was used at the concentration as outlined in table 1.
smiles,measurement,setting,value
"Cc1cc2c(C(C)C)c(O)c(O)c(C=O)c2c(O)c1-c1c(C)cc2c(C(C)C)c(O)c(O)c(C=O)c2c1O (racemic) [gossypol, Gossypol]",Total methane change [% vs. control],"gossypol 5 μM, listed as prints 2 g/animal/day",−1 % vs. control
same,Total methane change [% vs. control],"gossypol 10 μM, listed as prints 4.3 g/animal/day",−11 % vs. control
same,Total methane change [% vs. control],"gossypol 20 μM, listed as prints 8.6 g/animal/day",−15 % vs. control
same,Total methane change [% vs. control],"gossypol 100 μM, listed as prints 17.3 g/animal/day",−69 % vs. control
same,methane reduction,gossypol concentrations of at least 7.5 g gossypol/animal/day,Clear effects

# Source: patent US20240196932A1, “NOVEL USE” (DSM IP Assets B.V., priority 2021, published 2024)
